Laboratory results as given in PubChem BioAssay AID248 (DTP/NCI, 2004).
“And” between values parts separate entries of the source, which are not always exact repeats. Equal values may be shown once. Toxic doses and inconclusive results are not listed. No stated cut-off is given here; in the data, active means T/C of 150% or more; inactive means T/C below 125%.

System: L1210 leukemia ip in BDF1 mice, survival T/C
Test: NCI In Vivo Anticancer Drug Screen. Data for tumor model L1210 Leukemia (intraperitoneal) in B6D2F1 (BDF1) mice
Conditions: endpoint: mean survival time, higher = longer survival
Summary of the method: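 Transplanted-tumor mice were given test agent; controls received vehicle only. Survival readings from the two groups were divided (treated over control).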

[1] = dose: 100.0 mg/kg/injection, schedule: Q01DX001 (ip), vehicle: saline
[2] = dose: 200.0 mg/kg/injection, schedule: Q01DX001 (ip), vehicle: saline
[3] = dose: 400.0 mg/kg/injection, schedule: Q01DX001 (ip), vehicle: saline
[4] = dose: 100.0 mg/kg/injection, schedule: Q04DX003 (ip), vehicle: Klucel (hydroxypropylcellulose) (HPC)
[5] = dose: 200.0 mg/kg/injection, schedule: Q04DX003 (ip), vehicle: Klucel (hydroxypropylcellulose) (HPC)
[6] = dose: 400.0 mg/kg/injection, schedule: Q04DX003 (ip), vehicle: Klucel (hydroxypropylcellulose) (HPC)
[7] = dose: 100.0 mg/kg/injection, schedule: Q04DX003 (ip), vehicle: saline with Tween-80
[8] = dose: 200.0 mg/kg/injection, schedule: Q04DX003 (ip), vehicle: saline with Tween-80
[9] = dose: 100.0 mg/kg/injection, schedule: Q01DX009 (ip), vehicle: saline
[10] = dose: 75.0 mg/kg/injection, schedule: Q01DX001 (ip), vehicle: saline
[11] = dose: 100.0 mg/kg/injection, schedule: Q01DX009 (ip), vehicle: Klucel (hydroxypropylcellulose) (HPC)
[12] = dose: 200.0 mg/kg/injection, schedule: Q01DX009 (ip), vehicle: Klucel (hydroxypropylcellulose) (HPC)
[13] = dose: 12.5 mg/kg/injection, schedule: Q01DX009 (ip), vehicle: Klucel (hydroxypropylcellulose) (HPC)
[14] = dose: 200.0 mg/kg/injection, schedule: Q01DX009 (ip), vehicle: saline
[15] = dose: 400.0 mg/kg/injection, schedule: Q01DX009 (ip), vehicle: saline
[16] = dose: 400.0 mg/kg/injection, schedule: Q04DX003 (ip), vehicle: saline with Tween-80
[17] = dose: 100.0 mg/kg/injection, schedule: Q04DX002 (ip), vehicle: Klucel (hydroxypropylcellulose) (HPC)
[18] = dose: 200.0 mg/kg/injection, schedule: Q04DX002 (ip), vehicle: Klucel (hydroxypropylcellulose) (HPC)
[19] = dose: 400.0 mg/kg/injection, schedule: Q04DX002 (ip), vehicle: Klucel (hydroxypropylcellulose) (HPC)

Measured: T/C

O=c1cc(CO)oc(C(Nc2cccc(Cl)c2)c2ccccc2)c1O (stereo unspecified)
inactive: [1] 91 % of control | [2] 95 % of control | [3] 89 % of control

Ic1ncnc2c1ncn2C1CCCCO1 (stereo unspecified)
inactive: dose: 31.0 mg/kg/injection, schedule: Q01DX Z (ip), vehicle: other 111 % of control | dose: 62.0 mg/kg/injection, schedule: Q01DX Z (ip), vehicle: other 109 % of control | [1] 98 % of control | dose: 100.0 mg/kg/injection, schedule: Q01DX009 (ip), vehicle: saline sonified 96 % of control | [4] 93 % of control | dose: 125.0 mg/kg/injection, schedule: Q01DX Z (ip), vehicle: other 103 % of control | [2] 107 % of control | dose: 200.0 mg/kg/injection, schedule: Q01DX009 (ip), vehicle: saline sonified 93 % of control | [5] 94 % of control | dose: 250.0 mg/kg/injection, schedule: Q01DX Z (ip), vehicle: other 111 % of control | dose: 375.0 mg/kg/injection, schedule: Q01DX Z (ip), vehicle: other 114 % of control | [3] 104 % of control | [6] 98 % of control | dose: 500.0 mg/kg/injection, schedule: Q01DX Z (ip), vehicle: other 121 % of control

Cc1nc(N(C)C)[nH]c(=O)c1CCCNc1ccccc1
inactive: dose: 100.0 mg/kg/injection, schedule: Q01DX001 (ip), vehicle: saline with Tween-80 111 % of control | dose: 200.0 mg/kg/injection, schedule: Q01DX001 (ip), vehicle: saline with Tween-80 96 % of control | dose: 400.0 mg/kg/injection, schedule: Q01DX001 (ip), vehicle: saline with Tween-80 100 % of control

COC(=O)c1c(C(=O)c2ccccc2)nn2c(-c3ccccc3)c(-c3ccccc3)c(-c3ccccc3)c(-c3ccccc3)c12
inactive: [2] 86 % of control | [3] 93 % of control

COc1ccc(-n2c(C)csc2=S)cc1
inactive: [7] 94 % of control | [8] 97 % of control

CCCCC(CC)COC(=O)C[N+](C)(C)CCOC(c1ccccc1)c1ccccc1 (stereo unspecified)
inactive: dose: 6.25 mg/kg/injection, schedule: Q04DX003 (ip), vehicle: saline with Tween-80 91 % of control | dose: 12.5 mg/kg/injection, schedule: Q04DX003 (ip), vehicle: saline with Tween-80 97 % of control

CC1(C)N=C(N)N=C(N)N1c1cccc(OCCCOc2ccc(NC(=O)CBr)cc2)c1
inactive: dose: 45.0 mg/kg/injection, schedule: Q01DX009 (ip), vehicle: saline 104 % of control | dose: 67.0 mg/kg/injection, schedule: Q01DX009 (ip), vehicle: saline 104 % of control | [1] 110 % of control | [9] 102 % of control | [2] 97 % of control

Nc1nc(N)c2nn(-c3ccc(C(=O)O)cc3)nc2n1
inactive: [10] 87 % of control | dose: 150.0 mg/kg/injection, schedule: Q01DX001 (ip), vehicle: saline 86 % of control | dose: 300.0 mg/kg/injection, schedule: Q01DX001 (ip), vehicle: saline 103 % of control

O=[N+]([O-])c1ccc(N2CCCC2)c([N+](=O)[O-])c1
inactive: [11] 101 % of control | [4] 95 % of control | [12] 93 % of control | [5] 92 % of control | dose: 400.0 mg/kg/injection, schedule: Q01DX009 (ip), vehicle: Klucel (hydroxypropylcellulose) (HPC) 97 % of control | [6] 99 % of control

ClC1(Cl)CC1c1ccccc1 (stereo unspecified)
inactive: dose: 100.0 mg/kg/injection, schedule: Q01DX009 (ip), vehicle: saline with Tween-80 101 % of control | dose: 200.0 mg/kg/injection, schedule: Q01DX009 (ip), vehicle: saline with Tween-80 91 % of control

CC(=O)OCCC/C(=C\c1ccc(F)cc1)[N+](=O)[O-]
inactive: dose: 100.0 mg/kg/injection, schedule: Q01DX001 (ip), vehicle: other 111 % of control

COC(=O)N/N=C/c1ccc(Cl)cc1Cl
inactive: dose: 6.25 mg/kg/injection, schedule: Q01DX009 (ip), vehicle: Klucel (hydroxypropylcellulose) (HPC) 94 % of control | [13] 101 % of control | dose: 25.0 mg/kg/injection, schedule: Q01DX009 (ip), vehicle: Klucel (hydroxypropylcellulose) (HPC) 94 % of control and 92 % of control

CCOC(=O)C1CCCNC1 (stereo unspecified)
inactive: [9] 96 % of control | dose: 100.0 mg/kg/injection, schedule: Q04DX003 (ip), vehicle: saline 98 % of control | [14] 91 % of control | dose: 200.0 mg/kg/injection, schedule: Q04DX003 (ip), vehicle: saline 101 % of control | [15] 100 % of control | dose: 400.0 mg/kg/injection, schedule: Q04DX003 (ip), vehicle: saline 94 % of control

Cc1ncc(CO)c(C2NOCc3nscc32)c1O (stereo unspecified)
inactive: dose: 3.12 mg/kg/injection, schedule: Q01DX009 (ip), vehicle: Klucel (hydroxypropylcellulose) (HPC) 94 % of control | dose: 3.12 mg/kg/injection, schedule: Q01DX009 (ip), vehicle: other 98 % of control | dose: 6.25 mg/kg/injection, schedule: Q01DX009 (ip), vehicle: other 100 % of control | [13] 89 % of control | dose: 12.5 mg/kg/injection, schedule: Q01DX009 (ip), vehicle: other 107 % of control | dose: 12.5 mg/kg/injection, schedule: Q04DX003 (ip), vehicle: Klucel (hydroxypropylcellulose) (HPC) 92 % of control

O=C(NCO)NC1NC(=O)NC1=O (stereo unspecified)
inactive: [7] 101 % of control | [8] 101 % of control | [16] 108 % of control

O=C1c2ccccc2C(=O)c2cc(Cl)ccc21
inactive: [17] 95 % of control | [18] 98 % of control | [19] 98 % of control

CNC(=O)Oc1cccc2c1OC(C)(C)C2
inactive: dose: 1.56 mg/kg/injection, schedule: Q01DX001 (ip), vehicle: Klucel (hydroxypropylcellulose) (HPC) 96 % of control | dose: 3.13 mg/kg/injection, schedule: Q01DX001 (ip), vehicle: Klucel (hydroxypropylcellulose) (HPC) 103 % of control

COc1ccc(NC(=O)c2cccc(C(=O)Nc3ccc(OC)cc3Cl)c2)c(Cl)c1
inactive: [17] 97 % of control | [18] 97 % of control | [19] 90 % of control

Cc1nccnc1SC1CCCCC1
inactive: [4] 96 % of control | [5] 96 % of control | [6] 93 % of control

NC(=O)NC(NC(N)=O)C(Cl)(Cl)Cl
inactive: [9] 101 % of control | [7] 100 % of control | [14] 102 % of control | [8] 100 % of control | [15] 102 % of control | [16] 100 % of control

CC(=O)OC1COC(NC(=O)NCCCl)C(OC(C)=O)C1OC(C)=O (stereo unspecified)
inactive: [4] 109 % of control | [5] 103 % of control | [6] 103 % of control

CC1CC(NCCO)CC(C)(C)C1 (stereo unspecified)
inactive: dose: 75.0 mg/kg/injection, schedule: Q01DX001 (ip), vehicle: acid diluted with saline 122 % of control | dose: 150.0 mg/kg/injection, schedule: Q01DX001 (ip), vehicle: acid diluted with saline 100 % of control

C=C(Br)CN(CCCC)C(C)=O
inactive: [11] 100 % of control | [4] 103 % of control | [12] 108 % of control | [5] 100 % of control and 92 % of control

CC(C)(CO)CN1CCCC1
inactive: [1] 103 % of control | [2] 100 % of control

COC(=O)C1=C(C(=O)OC)C2C=CC1C1(C)C(=O)N(C)C21C (stereo unspecified)
inactive: dose: 75.0 mg/kg/injection, schedule: Q04DX002 (ip), vehicle: Klucel (hydroxypropylcellulose) (HPC) 90 % of control | dose: 300.0 mg/kg/injection, schedule: Q04DX002 (ip), vehicle: Klucel (hydroxypropylcellulose) (HPC) 86 % of control

Cc1no[n+]([O-])c1C(=O)N(C)C
inactive: dose: 25.0 mg/kg/injection, schedule: Q04DX002 (ip), vehicle: Klucel (hydroxypropylcellulose) (HPC) 95 % of control | dose: 50.0 mg/kg/injection, schedule: Q04DX002 (ip), vehicle: Klucel (hydroxypropylcellulose) (HPC) 95 % of control | [17] 95 % of control

O=P(Cc1ccccc1)(c1ccccc1)c1ccccc1
inactive: [4] 90 % of control | [5] 90 % of control | [6] 94 % of control

OCC1CC(n2cnc3c(=S)nc[nH]c32)C(O)C1O (stereo unspecified)
inactive: dose: 50.0 mg/kg/injection, schedule: Q01DX001 (ip), vehicle: saline 96 % of control | [1] 96 % of control | [2] 96 % of control
